We go through two molecules from PubChem BioAssay (NCI).

Some test systems named below: HCT-116 colon; EKVX NSCLC; CAKI-1 renal; CCRF-CEM leukemia; NCI-H460 lung; U251 CNS; M14 melanoma; SNB-75 CNS; HCC-2998 colon; SK-MEL-28 melanoma.
Holding throughout (experiment): growth of human tumour cells (NCI), 48 h

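Compound exposure: 48 hours, 5 concentrations, 96-well plates. TGI denotes the concentration required for complete inhibition of growth.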

With `N#Cc1ccccc1-c1nc2c3c(c(N)ccc3n1)C(=O)c1ccccc1-2`, the TGI was over 100 µM in the test with HCT-116 colon; over 100 µM in the test with EKVX NSCLC; 43.6 µM in the test on CAKI-1 renal; over 100 µM in the test on CCRF-CEM leukemia; over 100 µM with NCI-H460 lung; over 100 µM in the test on U251 CNS. Besides, the TGI in the test with M14 melanoma, in the test on SNB-75 CNS, with HCC-2998 colon and in the test on SK-MEL-28 melanoma was over 100 µM in each case.

For the molecule `COc1cc(C2c3cc4c(cc3OC(NNC(N)=O)C2C)OCO4)cc(OC)c1O` (stereo not given), the TGI in the test with HCT-116 colon was over 56.5 µM; in the test on EKVX NSCLC it was over 100 µM; with CAKI-1 renal it was over 100 µM; in the test with CCRF-CEM leukemia, over 100 µM; with NCI-H460 lung it was over 100 µM; in the test on U251 CNS, over 53.1 µM. Moreover, the TGI in the test with M14 melanoma was over 42.6 µM; with SNB-75 CNS, over 100 µM; in the test with HCC-2998 colon it was 6.5 µM; with SK-MEL-28 melanoma, over 100 µM.
